Measurements published in patent US20250304633A1, “PEPTIDE HAVING ANTIMICROBIAL ACTIVITY” (CABOSSE NATURALS NV, priority 2022, published 2025).
Ends that are not written are not given here.

Assays:
Assay type in all cases: cell-based
Sclerotinia sclerotiorum = test system: Sclerotinia sclerotiorum
Description: (§1) The antimicrobial potential of the peptide described herein was compared with the activity of, two other AMPs, TcAMP1 and TcAMP2 as discussed in WO1998027805, and antibiotics or fungicides. Comparative MIC assays were carried out against several bacterial and fungal species (Table 1).
(§2) Peptides according to SEQ ID N° 1, SEQ ID N° 4, and SEQ ID N° 5 were serially diluted in order to create a concentration sequence ranging from 0.39 μg/ml to […].
(§3) Pantoea, Staphylococcus, and Listeria were cultured in Trypticase Soy Broth (TSY) medium consisting of 1.7% casein peptone, 0.3% soy peptone, 0.25% glucose, 0.5% NaCl, 0.25% K2HPO4 and optionally 1.5% agar. Candida cells were cultured in Yeast Extract Peptone Dextrose (YPD) broth medium consisting of 1% yeast extract, 2% peptone, 2% glucose, and optionally 2% agar. Ceratocystis, Botrytis, Leptosphaeria, Mycosphaerella, Sclerotinia, and Verticillium were cultured in Potato Dextrose Agar (PDA) medium consisting of 2.4% Difco pre-mix broth and optionally 1.5% agar.
(§4) For the MIC assay bacteria and fungi were grown on agar plates with their respective media. Pre-cultures were prepared by inoculating either single bacterial colonies or small pieces of fungi in 5 ml of the respective liquid medium. The optical density (OD) at 600 nm was measured after one to five days and adjusted to an OD600 of 1. This cell suspension was used to prepare 1:500 dilutions, corresponding to approximately 2×10^6 microbial cells per ml.
(§5) To evaluate MICs, 96-well plates were prepared with the test antimicrobial peptides. Each well contained 100 μl microbial cell culture, 90 μl culture medium, and 10 μl peptide or control at the corresponding dilution. The plates were incubated overnight (ON) at the optimal growth temperature for each tested organism. Results were visually evaluated and MICs determined based on growth or no-growth.
(§6) MIC assays were conducted in at least two independent replicates and with different peptide starting concentrations.

[1] = test system: Staphylococcus aureus MRSA
Description: as §1, §2, §3, §4, §5, §6

Botrytis cinerea = test system: Botrytis cinerea
Description: as §1, §2, §3, §4, §5, §6

Verticillium dahliae = test system: Verticillium dahliae
Description: as §1, §2, §3, §4, §5, §6

Candida albicans = test system: Candida albicans
Description: as §1, §2, §3, §4, §5, §6

Listeria monocytogenes = test system: Listeria monocytogenes
Description: as §1, §2, §3, §4, §5, §6

Leptosphaeria maculans = test system: Leptosphaeria maculans
Description: as §1, §2, §3, §4, §5, §6

Mycosphaerella pinodes = test system: Mycosphaerella pinodes
Description: as §1, §2, §3, §4, §5, §6

Ceratosystis paradoxa = test system: Ceratosystis paradoxa
Description: as §1, §2, §3, §4, §5, §6

Pantoea agglomerans = test system: Pantoea agglomerans
Description: as §1, §2, §3, §4, §5, §6

tested fungal species = assay: MIC assays, all tested fungal species; details: all the tested fungal species
Description: as §1, §2, §3
For the MIC assay bacteria and fungi were grown on agar plates with their respective media. […] The optical density (OD) at 600 nm was measured after one to five days and adjusted to an OD600 of 1. […]
To evaluate MICs, 96-well plates were prepared with the test antimicrobial peptides. […] Results were visually evaluated and MICs determined based on growth or no-growth. […]

For “YGRKQYERDPRQQYEQCQRRCESEATEEREQEQCEQRCEREYKEQQRQQEEELQRQ (cysteines drawn unpaired) [SEQ ID No 1]”, which Minimal inhibitory concentration (Sclerotinia sclerotiorum) is on record?
Its Minimal inhibitory concentration is 10.4 µg/mL.

What about the Minimal inhibitory concentration [1] of the same sequence?
The Minimal inhibitory concentration was 3.2 µg/mL.

And the Minimal inhibitory concentration (Botrytis cinerea)?
Its Minimal inhibitory concentration is 3.5 µg/mL.

What about the Minimal inhibitory concentration (Verticillium dahliae) of the same sequence?
Its Minimal inhibitory concentration is 3.85 µg/mL.

What about the Minimal inhibitory concentration (Candida albicans) of the same sequence?
Its Minimal inhibitory concentration is 3.85 µg/mL.

And the Minimal inhibitory concentration (Listeria monocytogenes)?
Its Minimal inhibitory concentration is 1.6 µg/mL.

And the Minimal inhibitory concentration (Leptosphaeria maculans)?
The Minimal inhibitory concentration was 12.5 µg/mL.

What about the Minimal inhibitory concentration (Mycosphaerella pinodes) of the same sequence?
Its Minimal inhibitory concentration is 2.8 µg/mL.

What about the Minimal inhibitory concentration (Ceratosystis paradoxa) of the same sequence?
The Minimal inhibitory concentration was 1.9 µg/mL.

And the Minimal inhibitory concentration (Pantoea agglomerans)?
Its Minimal inhibitory concentration is 2.5 µg/mL.

What about the “inhibitory effects in MIC assays” value (tested fungal species) of the same sequence?
The value was “inhibitory effects against all the tested fungal species”.
